Results reported in patent US12077495B2 (priority 2018, dated 2024).

What was measured:
CAMK2A = molecular target: T1, CAMK2A (Rattus norvegicus, UniProt P11275); assay: biochemical; type: binding; settings: whole cell lysates of CAMK2A-transfected HEK293T cells
T1 construct: host or cells: HEK293T
Description: Cells were transfected with rat CAMK2A (Origene construct RR201121) or rat CAMK2B (Origene construct RR200520) using PolyFect (Qiagen, West Sussex, UK) according to the manufacturer's protocol. Whole cell homogenates were prepared 48 hr post-transfection by washing the cells with ice-cold 1×PBS and harvesting by scraping. Cells were collected and centrifuged for 10 min at 1000×g. Cell pellets were resuspended in ice-cold 1×PBS and homogenized using 2×1 mm zirkonium beads in a bullet blender for 20 s at max speed (NextAdvance, NY, USA). Homogenates were cleared by centrifugation (10 min, 4° C., 14.000×g). Protein concentration was determined using the Bradford protein assay. 150-200 μg protein was incubated with 5 nM ^3H-A and test compound in 1 ml total volume for 1 hr at 0-4° C. […] Proteins were then precipitated by addition of ice-cold acetone (4× of the assay volume), vortexing and incubation at −20° C. for 1 hr. Proteins were filtrated rapidly through GF/C unifilters (Whatman) and washed. The dried filters were added scintillation liquid and radioactivity measured on a Tricarb 2100 Scintillation counter (Packard).
A) Principle of photoaffinity labelling workflow. […] After introduction of biotin through a Staudinger-Bertozzi ligation to EZ-Link™ Phosphine-PEG3-Biotin (ThermoFisher Scientific), the biotin-labelled proteins were affinity-purified and subjected to LC-MS/MS analysis. […] C)^3H-A binding to cortical membranes from CAMK2A and CAMK2B knock-out mouse brains.
Human/rat CAMK2A expressed in HEK cells was assayed in an in-house established ^3H-A filtration binding assay performed on whole cell lysates of CAMK2A-transfected HEK293T cells.

[1] = system: permanent middle cerebral artery occlusion in C57BL/6J mice; assay: pMCAO model, behavioural assessment (rotarod, grip strength, Hargreaves); type: in vivo; settings: 175 mg/kg 30 min after pMCAO
Description: To assess sensory-motor impairment, animals were tested in the rotarod, grip strength and Hargreaves tests 2-3 days post-stroke.
The rotarod (LE 8200, Panlab) measures motor performance in rodents by assessing the time during which the animal remains on a rotating rod. The rod rotation accelerates from 0 to 40 rounds per min (rpm) over a time period of 5 min 48 hrs post-stroke, mice were tested in four repeating trials with a 20 min interval (resting time). Prior to surgery, mice were pretrained to stay on the rod for 30 s at 4 rpm. The grip strength meter (BIO-GT-3, BIOSEB) allowed the study of neuromuscular functions in mice by determining the maximum force that is required to make the mouse release its grip.
The mouse is allowed to grasp a metal grid and then pulled backwards in the horizontal plane. The force applied to the grid is recorded as the peak tension. Individual (right and left) and total (both) front paw grip strength was measured before (baseline) and 3 days after pMCAO. Each mouse was tested in five sequential trials and the highest grip strength was recorded as the score. Thermal hyperalgesia (hind paw withdrawal from a normally innocuous heat source) was tested with a Hargreaves test setup. […] The lowest and highest reflex latency scores were discarded and the average for left and right was calculated and plotted.
Compound A (175 mg/kg) was administered to mice 30 min after induction of a focal stroke via a permanent occlusion of the middle cerebral artery and compared to saline-treated animals and both motor- and sensory impairment was investigated using rotarod, grip strength and Hargreaves tests.

[2] = system: photothrombotic focal ischemia in C57BL/6J mice; assay: Photothrombotic mouse model of focal ischemia, infarct volume; type: in vivo; settings: for infarct volume: saline 9.38
Description: All procedures were performed in accordance with the guidelines on the care and use of laboratory animals set out by the University of Otago, Animal Research Committee and the Guide for Care and Use of Laboratory Animals (NIH Publication No. 85-23, 1996). All in vivo studies were approved by the University of Otago Animal Ethics Committee and are reported according to the ARRIVE (Animal Research: Reporting In Vivo Experiments) guidelines. The photochemical cortical lesion model resembles situations of acute brain injury related clinically to stroke and traumatic brain injury (TBI). Focal ischemia was induced by photothrombosis in male C57BL/6J mice (8-10 weeks) weighing ˜23-30 g as previously described (Clarkson et al., 2010). Under anesthesia with isoflurane (2% to 2.5% in O2) mice were placed in a stereotactic apparatus, the skull exposed through a midline incision, cleared of connective tissue and dried. A cold light source (KL1500 LCD, Zeiss, Auckland, New Zealand) attached to a 40× objective providing a 2-mm diameter illumination was positioned 1.5 mm lateral from bregma. Then, 0.2 ml of Rose Bengal (Sigma-Aldrich, Auckland, New Zealand; 10 mg/ml in normal saline) was administered i.p. After 5 min, the brain was illuminated through the exposed intact skull for 15 min, while keeping body temperature at 37.0±0.3° C. degrees using a heating pad (Harvard apparatus, Holliston, MA, USA). The skin was glued and animals left in a cage placed on a heating pad during the wake-up phase. Mice were housed under a 12-hr light/dark cycle with ad libitum access to food and water. Further, the mice were monitored and weighed on a daily basis.
For in vivo studies, all compounds were dissolved in a mixture of sterile saline and H2O to obtain isotonicity (0.9%) and administered as 10 mg/ml and 10 μl of solution per gram mouse body weight. The injection of compound (i.p.) was performed 30 min, 3, 6 or 12 hrs after induction of the photothrombotic stroke. The vehicle groups received a corresponding volume of saline (0.9%) at the same time points (30 min, 3, 6 or 12 hrs).
For quantification of the infarcted area, animals were perfused with saline and then with 4% paraformaldehyde (PFA) and the brain dissected out and submerged in 4% PFA for post-fixing overnight. Then the brains were moved to 30% sucrose solution and kept at 4° C. until processing. Brains were cut in 30 μm sections, free-floating in anti-freeze media. Sections were mounted, stained for cresyl violet and the infarct volumes determined by measuring every 6th section through the entire infarct as described in Lie et al (2017). All analyses were performed by an observer blinded to the treatment groups. Brains from the pMCAO studies were flash-frozen in CO2 (gas) and processed into six parallel series of sections (30 μm). Separate series were collected on glass slides and used for infarct size analysis or in Eppendorf tubes and used for qPCR. The glass slides were stored at −80° C. until further processing, and then Cresyl-Violet stained and quantified as described for the photothrombotic photochemical method.

[3] = 175 mg/kg i.p. 30 min after stroke, day 3

T1 sequence (P11275 whole entry): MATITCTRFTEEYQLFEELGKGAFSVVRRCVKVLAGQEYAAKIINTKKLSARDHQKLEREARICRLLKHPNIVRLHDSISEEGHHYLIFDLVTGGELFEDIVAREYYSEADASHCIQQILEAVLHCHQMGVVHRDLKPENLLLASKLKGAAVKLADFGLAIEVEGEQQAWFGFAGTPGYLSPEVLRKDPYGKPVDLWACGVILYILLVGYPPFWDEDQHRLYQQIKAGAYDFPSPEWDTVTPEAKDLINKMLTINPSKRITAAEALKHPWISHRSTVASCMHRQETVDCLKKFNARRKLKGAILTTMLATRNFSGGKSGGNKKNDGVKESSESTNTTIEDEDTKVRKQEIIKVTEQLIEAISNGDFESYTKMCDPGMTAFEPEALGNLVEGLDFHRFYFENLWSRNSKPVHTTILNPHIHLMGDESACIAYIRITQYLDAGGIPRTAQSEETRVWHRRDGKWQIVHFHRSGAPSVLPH

In the case of O=C(O)C1=CC(O)CC1 (stereo not shown) [Compound A, 3-hydroxycyclopent-1-enecarboxylic acid], the Ki (CAMK2A) is reported as 1.95 µM, the “Hargreaves test, increased response time in affected forelimb” value [1] is reported as “not evident” and the “rotarod test, learning” value ([1]; 48 hrs post-stroke, T1 to T2) is reported as “steeper learning curve”. For the same compound, the “grip strength deficit in affected fore limb” value ([1]; three days after stroke) was “did not demonstrate any deficit”, the infarct volume ([2]; 17.5 mg/kg i.p. 30 min after stroke, day 3, not significant) was 8.95 mm^3 and the “decrease of infarct size vs saline” value ([2]; 90 mg/kg 3 hrs after stroke) was 51%. The infarct size ([2]; 90 mg/kg 3 hrs after stroke, saline 5.55) was 2.68 mm^3, the “decrease of infarct size vs saline” value ([2]; 175 mg/kg i.p. 3, 6 or 12 hrs after stroke) was 33-43% and the “reduction of infarct volume vs saline” value [2, 3] was 30%. For the same compound, the infarct volume [2, 3] was 6.56 mm^3, the infarct size ([2]; 175 mg/kg i.p. 3 hrs after stroke, saline 5.51) was 3.12 mm^3 and the infarct size ([2]; 175 mg/kg i.p. 6 hrs after stroke, saline 5.51) was 3.68 mm^3. The infarct size ([2]; 175 mg/kg i.p. 12 hrs after stroke, saline 5.51) was 3.58 mm^3.
